Laboratory results reported in the NIST ThermoML archive (doi:10.1016/j.jct.2007.07.005).
Numbers after ± are expanded uncertainties.

Test: xn = mol fraction of the nth substance listed
Conditions: Fluid (supercritical or subcritical phases), vibrating tube

CCCCCO [pentan-1-ol] + O=C=O
Conditions	mass density [kg/m3]
313.11 K, 24020 kPa, x2 = 0.0816	821.33 ± 0.45
313.11 K, 25023 kPa, x2 = 0.0816	822.02 ± 0.45
313.12 K, 10002 kPa, x2 = 0.8573	809.77 ± 0.54
313.12 K, 10012 kPa, x2 = 0.7274	838.41 ± 0.47
313.12 K, 11010 kPa, x2 = 0.7274	841.91 ± 0.46
313.12 K, 11023 kPa, x2 = 0.8573	818.98 ± 0.53
313.12 K, 11998 kPa, x2 = 0.7274	845.15 ± 0.46
313.12 K, 12025 kPa, x2 = 0.8573	826.77 ± 0.51
313.12 K, 13005 kPa, x2 = 0.8573	833.59 ± 0.5
313.12 K, 13032 kPa, x2 = 0.7274	848.39 ± 0.46
313.12 K, 14012 kPa, x2 = 0.8573	839.94 ± 0.5
313.12 K, 14027 kPa, x2 = 0.7274	851.37 ± 0.46
313.12 K, 15004 kPa, x2 = 0.7274	854.2 ± 0.46
313.12 K, 15004 kPa, x2 = 0.8573	845.66 ± 0.49
313.12 K, 15995 kPa, x2 = 0.8573	851 ± 0.49
313.12 K, 16022 kPa, x2 = 0.7274	857 ± 0.46
313.12 K, 17007 kPa, x2 = 0.8573	856.08 ± 0.49
313.12 K, 17019 kPa, x2 = 0.7274	859.65 ± 0.46
313.12 K, 18013 kPa, x2 = 0.8573	860.84 ± 0.48
313.12 K, 18018 kPa, x2 = 0.7274	862.21 ± 0.46
313.12 K, 19038 kPa, x2 = 0.8573	865.44 ± 0.48
313.12 K, 19055 kPa, x2 = 0.7274	864.78 ± 0.46
313.12 K, 19966 kPa, x2 = 0.7274	866.98 ± 0.46
313.12 K, 20008 kPa, x2 = 0.8573	869.59 ± 0.48
313.12 K, 21008 kPa, x2 = 0.8573	873.67 ± 0.48
313.12 K, 21014 kPa, x2 = 0.7274	869.44 ± 0.46
313.12 K, 22009 kPa, x2 = 0.8573	877.54 ± 0.48
313.12 K, 22029 kPa, x2 = 0.7274	871.77 ± 0.46
313.12 K, 23015 kPa, x2 = 0.8573	881.34 ± 0.48
313.12 K, 23059 kPa, x2 = 0.7274	874.05 ± 0.47
313.12 K, 23995 kPa, x2 = 0.8573	884.88 ± 0.48
313.14 K, 5019 kPa, x2 = 0.1347	808.85 ± 0.44
313.14 K, 6010 kPa, x2 = 0.1347	809.58 ± 0.44
313.14 K, 7003 kPa, x2 = 0.1347	810.4 ± 0.44
313.14 K, 8042 kPa, x2 = 0.1347	811.24 ± 0.44
313.14 K, 9023 kPa, x2 = 0.1347	812.05 ± 0.44
313.14 K, 10012 kPa, x2 = 0.1347	812.85 ± 0.44
313.14 K, 11019 kPa, x2 = 0.1347	813.62 ± 0.44
313.14 K, 12025 kPa, x2 = 0.1347	814.42 ± 0.44
313.14 K, 13017 kPa, x2 = 0.1347	815.18 ± 0.44
313.14 K, 14011 kPa, x2 = 0.1347	815.96 ± 0.44
313.14 K, 15011 kPa, x2 = 0.1347	816.73 ± 0.45
313.14 K, 16014 kPa, x2 = 0.1347	817.47 ± 0.45
313.14 K, 17041 kPa, x2 = 0.1347	818.22 ± 0.45
313.14 K, 18022 kPa, x2 = 0.1347	818.95 ± 0.45
313.14 K, 19022 kPa, x2 = 0.1347	819.67 ± 0.45
313.14 K, 20012 kPa, x2 = 0.1347	820.39 ± 0.45
313.14 K, 21027 kPa, x2 = 0.1347	821.12 ± 0.45
313.14 K, 22024 kPa, x2 = 0.1347	821.83 ± 0.45
313.14 K, 23011 kPa, x2 = 0.1347	822.55 ± 0.45
313.14 K, 24032 kPa, x2 = 0.1347	823.28 ± 0.45
313.14 K, 25004 kPa, x2 = 0.1347	824 ± 0.45
313.17 K, 8123 kPa, x2 = 0.6054	838.39 ± 0.45
313.17 K, 9084 kPa, x2 = 0.6054	840.4 ± 0.44
313.17 K, 10125 kPa, x2 = 0.6054	842.5 ± 0.45
313.17 K, 11050 kPa, x2 = 0.6054	844.32 ± 0.45
313.17 K, 12045 kPa, x2 = 0.6054	846.23 ± 0.45
313.17 K, 13094 kPa, x2 = 0.6054	848.18 ± 0.45
313.17 K, 14054 kPa, x2 = 0.6054	849.93 ± 0.45
313.17 K, 15019 kPa, x2 = 0.6054	851.65 ± 0.45
313.17 K, 16045 kPa, x2 = 0.6054	853.41 ± 0.45
313.17 K, 17046 kPa, x2 = 0.6054	855.12 ± 0.45
313.17 K, 18027 kPa, x2 = 0.6054	856.75 ± 0.45
313.17 K, 19070 kPa, x2 = 0.6054	858.44 ± 0.45
313.17 K, 20036 kPa, x2 = 0.6054	859.99 ± 0.45
313.17 K, 21030 kPa, x2 = 0.6054	861.55 ± 0.46
313.17 K, 22042 kPa, x2 = 0.6054	863.12 ± 0.46
313.17 K, 23036 kPa, x2 = 0.6054	864.64 ± 0.46
313.17 K, 24020 kPa, x2 = 0.6054	866.12 ± 0.46
313.17 K, 25040 kPa, x2 = 0.6054	867.64 ± 0.46
322.89 K, 520 kPa, x2 = 0	792.06 ± 0.43
322.89 K, 1010 kPa, x2 = 0	792.47 ± 0.43
322.89 K, 2005 kPa, x2 = 0	793.27 ± 0.43
322.89 K, 3007 kPa, x2 = 0	794.07 ± 0.44
322.89 K, 4005 kPa, x2 = 0	794.86 ± 0.44
322.89 K, 5018 kPa, x2 = 0	795.63 ± 0.44
322.89 K, 6001 kPa, x2 = 0	796.42 ± 0.44
322.89 K, 7016 kPa, x2 = 0	797.2 ± 0.44
322.89 K, 8020 kPa, x2 = 0	797.97 ± 0.44
322.89 K, 8997 kPa, x2 = 0	798.71 ± 0.44
322.89 K, 10001 kPa, x2 = 0	799.47 ± 0.44
322.89 K, 11005 kPa, x2 = 0	800.21 ± 0.44
322.89 K, 11996 kPa, x2 = 0	800.95 ± 0.44
322.89 K, 13002 kPa, x2 = 0	801.68 ± 0.44
322.89 K, 14013 kPa, x2 = 0	802.4 ± 0.44
322.89 K, 15005 kPa, x2 = 0	803.11 ± 0.44
322.89 K, 16014 kPa, x2 = 0	803.82 ± 0.45
322.89 K, 17001 kPa, x2 = 0	804.51 ± 0.45
322.89 K, 18016 kPa, x2 = 0	805.21 ± 0.45
322.89 K, 19012 kPa, x2 = 0	805.89 ± 0.45
322.89 K, 19992 kPa, x2 = 0	806.56 ± 0.45
322.89 K, 21036 kPa, x2 = 0	807.26 ± 0.45
322.89 K, 22003 kPa, x2 = 0	807.92 ± 0.45
322.89 K, 23024 kPa, x2 = 0	808.61 ± 0.45
322.89 K, 23994 kPa, x2 = 0	809.26 ± 0.45
322.89 K, 25023 kPa, x2 = 0	810 ± 0.45
323.05 K, 3011 kPa, x2 = 0.0816	797.79 ± 0.44
323.05 K, 4020 kPa, x2 = 0.0816	798.67 ± 0.44
323.05 K, 5030 kPa, x2 = 0.0816	799.53 ± 0.44
323.05 K, 6018 kPa, x2 = 0.0816	800.37 ± 0.44
323.05 K, 7017 kPa, x2 = 0.3624	815.3 ± 0.44
323.05 K, 7023 kPa, x2 = 0.0816	801.2 ± 0.44
323.05 K, 8013 kPa, x2 = 0.0816	802.02 ± 0.44
323.05 K, 8029 kPa, x2 = 0.4651	820.04 ± 0.44
323.05 K, 8051 kPa, x2 = 0.3624	816.51 ± 0.44
323.05 K, 9009 kPa, x2 = 0.4651	821.63 ± 0.44
323.05 K, 9023 kPa, x2 = 0.0816	802.84 ± 0.44
323.05 K, 9034 kPa, x2 = 0.3624	817.64 ± 0.44
323.05 K, 9991 kPa, x2 = 0.4651	823.23 ± 0.44
323.05 K, 10026 kPa, x2 = 0.0816	803.67 ± 0.44
323.05 K, 10029 kPa, x2 = 0.3624	818.77 ± 0.44
323.05 K, 11006 kPa, x2 = 0.0816	804.46 ± 0.44
323.05 K, 11012 kPa, x2 = 0.4651	824.81 ± 0.44
323.05 K, 11015 kPa, x2 = 0.8067	800.23 ± 0.54
323.05 K, 11022 kPa, x2 = 0.3624	819.83 ± 0.44
323.05 K, 11033 kPa, x2 = 0.9757	625.72 ± 1.2
323.05 K, 11992 kPa, x2 = 0.0816	805.23 ± 0.44
323.05 K, 11993 kPa, x2 = 0.4651	826.28 ± 0.45
323.05 K, 11995 kPa, x2 = 0.9757	668.32 ± 0.99
323.05 K, 12003 kPa, x2 = 0.3624	820.86 ± 0.44
323.05 K, 12032 kPa, x2 = 0.8067	808.05 ± 0.5
323.05 K, 13015 kPa, x2 = 0.3624	821.9 ± 0.44
323.05 K, 13017 kPa, x2 = 0.9757	699.41 ± 0.87
323.05 K, 13024 kPa, x2 = 0.4651	827.83 ± 0.45
